What was measured:
rgRSV224 virus = experiment: Antiviral activity: rgRSV224 (GFP) replication in HeLa cells; assay type: cell-based; conditions: human respiratory syncytial virus, 72 h, read-out: RSV HELA EC50 (μM)
Procedure: (§1) Black 384-well clear-bottom microtiter plates (Corning, Amsterdam, The Netherlands) were filled via acoustic drop ejection using the echo liquid handler (Labcyte, Sunnyvale, California). 200 nL of compound stock solutions (100% DMSO) were transferred to the assay plates. 9 serial 4-fold dilutions of compound were made, creating per quadrant the same compound concentration. The assay was initiated by adding 10 μL of culture medium to each well (RPMI medium without phenol red, 10% FBS-heat inactivated, 0.04% gentamycin (50 mg/mL). All addition steps are done by using a multidrop dispenser (Thermo Scientific, Erembodegem, Belgium). Next, rgRSV224 virus (MOI=1) diluted in culture medium was added to the plates. rgRSV224 virus is an engineered virus that includes an additional GFP gene (Hallak LK, Spillmann D, Collins PL, Peeples ME. Glycosaminoglycan sulfation requirements for respiratory syncytial virus infection; Journal of virology (2000), 74(22), 10508-13) and was in-licensed from the NIH (Bethesda, MD, USA). Finally, 20 μL of a HeLa cell suspension (3,000 cells/well) were plated. Medium, virus- and mock-infected controls were included in each test. The wells contain 0.05% DMSO per volume. Cells were incubated at 37° C. in a 5% CO2 atmosphere. Three days post-virus exposure, viral replication was quantified by measuring GFP expression in the cells by an in house developed MSM laser microscope (Tibotec, Beerse, Belgium). The EC50 was defined as the 50% inhibitory concentration for GFP expression. In parallel, compounds were incubated for three days in a set of white 384-well microtiter plates (Corning) and the cytotoxicity of compounds in HeLa cells was determined by measuring the ATP content of the cells using the ATPlite kit (Perkin Elmer, Zaventem, Belgium) according to the manufacturer's instructions. The CC50 was defined as the 50% concentration for cytotoxicity.

in vitro = assay type: cell-based; conditions: human
Procedure: as §1

SMILES | EC50 (rgRSV224 virus) | CC50 at 3 days (in vitro)
C[C@@H]1c2ccccc2CCN1C(=O)c1cc(C2CC2)c2nc(-c3ccc(N4CC[C@H](C(N)=O)C4)cc3F)oc2c1 [Compound 22, (3S)-1-(4-{4-Cyclopropyl-6-[(1R)-1-methyl-1,2,3,4-tetrahydroisoquinoline-2-carbonyl]-1,3-benzoxazol-2-yl}-3-fluorophenyl)pyrrolidine-3-carboxamide] | 0.01 µM | 54.8 µM
C[C@@H]1c2ccccc2CCN1C(=O)c1cc(C2CC2)c2nc(-c3ccc(C4CC4C(=O)O)cc3F)n(C)c2n1 (stereo in doubt) [Compound 11, Trans 2-(4-{7-Cyclopropyl-3-methyl-5-[(1R)-1-methyl-1,2,3,4-tetrahydroisoquinoline-2-carbonyl]-3H-imidazo[4,5-b]pyridin-2-yl}-3-fluorophenyl)cyclopropane-1-carboxylic acid] | 0.52 µM | 76.8 µM
C[C@@H]1c2ccccc2CCN1C(=O)c1cc(C2CC2)c2nc(-c3ccc(N4CC[C@H](C(=O)O)C4)cc3F)n(C)c2c1 [Compound 16, (3S)-1-(4-{4-Cyclopropyl-1-methyl-6-[(1R)-1-methyl-1,2,3,4-tetrahydroisoquinoline-2-carbonyl]-1H-1,3-benzodiazol-2-yl}-3-fluorophenyl)pyrrolidine-3-carboxylic acid] | 0.61 µM | 65.3 µM
C[C@@H]1c2ccccc2CCN1C(=O)c1cc(C2CC2)c2nn(-c3ccc(NC(=O)N4CC[C@H](O)C4)cc3F)cc2c1 [Compound 20, (3S)-N-(4-{7-Cyclopropyl-5-[(1R)-1-methyl-1,2,3,4-tetrahydroisoquinoline-2-carbonyl]-2H-indazol-2-yl}-3-fluorophenyl)-3-hydroxypyrrolidine-1-carboxamide] | 0.06 µM | 54.4 µM
C[C@@H]1c2ccccc2CCN1C(=O)c1cc(C2CC2)c2sc(-c3ccc(N4C[C@H](O)[C@@H](O)C4)cc3F)nc2n1 [Compound 5, (7-cyclopropyl-2-(4-((3 S,4S)-3,4-dihydroxypyrrolidin-1-yl)-2-fluorophenyl)thiazolo[4,5-b]pyridin-5-yl)((R)-1-methyl-3,4-dihydroisoquinolin-2(1H)-yl)methanone] | 0.73 µM | 33.3 µM
